Measured values from article PMC9587079, “Bioavailability of inhaled or ingested PFOA adsorbed to house dust” (Environmental Science and Pollution Research International, 2022).
“Also recorded” adds a separate entry of the source.

Legend:
[1] = PFOA in plasma over time after inhalation or gavage of PFOA-coated house dust; assay type: in vivo, rat; conditions: for Cmax: male, RccHan:WIST, rat, plasma
[2] = Vapor concentration of PFOA at outlet of vapor generation chamber; assay type: physicochemical; conditions: room temperature, after 24 h
Method: The gas phase of PFOA was collected with OSHA Versatile Sampling (OVS) tubes with XAD-2 resin (SKC). Samples were collected at a flowrate of 0.04 L/min using vacuum sampling pumps. Collection times were set for 5 min typically for a 200 mL air sample. PFOA from the OVS sampler was extracted prior to analysis into two fractions with each fraction placed into individual PP tubes. Fraction A consisted of the glass or quartz fiber filter and first section of XAD resin beads and the first polyurethane foam (PUF) filter. Fraction B consisted of the second section of XAD resin beads and the back PUF filter. All samples were spiked with 50 μL of 1 μg/mL C13 solution, the surrogate standard. Each section was placed in PP tube to which 5 mL of HPLC-grade methanol was added. The tube was shaken for 60 min on a mechanical flatbed shaker set at ∼2 cycles per second. Approximately 4.5 mL of each extract was transferred to a pre-baked amber glass vial by filtering through a Gelman GHP Acrodisc (Pall Gelman Laboratory, Ann Arbor, MI, USA.). Each extract of consisting of 200 μL was transferred to an autosampler vial with PP insert. […]
The vapor concentration of PFOA (Cpfoa) measured at the outlet of the vapor pressure generation chamber is described in detail in Supplementary Information and shown in Fig. S1. […]

[3] = Sorption of PFOA on house dust in near saturated vapor; assay type: physicochemical; conditions: more than 3 weeks
Method: To achieve a sufficient concentration of PFOA on the house dust, a saturated vapor concentration procedure was created to adsorb/absorb PFOA on the house dust. This was done to ensure detectability in the tissue samples. Ten grams of solid pure perfluorooctanoic acid was placed in a glass jar bottle, capped with a lid, shaken and stored at room temperature (25 ± 0.1 °C) to allow vaporization and pre-equilibration of PFOA on the walls of the glass jars. Following equilibration of PFOA in the air and on walls of jars, a portion of 5 ± 0.03 g dust was placed in a polypropylene (PP) round plate inside each of four jars. These were capped and kept under the controlled room temperature and atmospheric pressure over time, mimicking a residential indoor environment, but with a saturated vapor of PFOA. Repeated samples of dust were withdrawn from the jars over time and analyzed for the PFOA content. This procedure was repeated over time for up to 6 weeks until a stable equilibrium concentration of PFOA was attained adsorbed to the dust. […]
During the adsorption process, the concentration of PFOA adsorbed to the dust was periodically measured after a rotatory mixing of dust samples with a tube rotator or 24 h prior to the extraction procedures and instrumental analysis. […]

[4] = design: method as in Hinderliter et al. [2006]; conditions: ref Hinderliter et al. [2006], cited from earlier work
[5] = cited from earlier work
[6] = design: method as in Iwabuchi et al. [2017]; conditions: oral 100 μg/kg bw, male rats, ref Iwabuchi et al. [2017], cited from earlier work

O=C(O)C(F)(F)C(F)(F)C(F)(F)C(F)(F)C(F)(F)C(F)(F)C(F)(F)F [PFOA, Perfluorooctanoic acid]
Cmax ([1]; inhaled or intranasal, inhalation group, n = 4, 164 μg PFOA/kg BW): 3100 ± 320 ng/mL | Cmax ([1]; oral gavage group, n = 4, 364 μg PFOA/kg BW): 1730 ± 170 ng/mL | Time of Cmax post exposure ([1]; oral gavage group): 3 h | Plasma PFOA (Cmax, 3 h) following inhalation compared to oral exposure ([1]; same deposition level of exposure): almost four times higher; also recorded: approximately four times higher | Stable (saturation) vapor concentration of PFOA [2]: 1.37e-05 µg/L | Steady state concentration of PFOA on house dust [3]: 0.335 g/g coated dust | Concentration of PFOA in plasma ([4]; 6-h inhalation exposure, 1–25 mg/m^3 aerosolized solution): 1000 to 25000 ng/mL | Plasma level in male compared to females ([4]; end of the 6-h exposure time): almost twice as high | Absorption over the gastrointestinal tract ([5]; oral exposure in animal studies, ammonium salt: APFO, ref DeWitt. [2015]): virtually all of it was absorbed | Delivered dose absorbed over the gastro intestinal ([5]; oral exposure, ref US EPA [2016], Pizzurro et al. [2019], DeWitt. [2015]): more than 90% | Liver to serum ratio ([6]; at Cmax (12 h)): 1.67 | Kidney to serum ratio [6]: 0.82
